# Assays:
# Format in all cases: physicochemical
# [1] = Kinetic solubility in water and bio-relevant media (SGF, FaSSIF, FeSSIF) at RT; conditions: for FC: Solid form change / S: Solubility / pH: Final pH of supernatant: RT
# Procedure: After being centrifuged and separated using 0.45 μm Nylon filter, filtrates were collected for HPLC and pH test, and wet cakes for XRPD characterization. If clear solutions were obtained after 24 hours, accurate concentration and purity were measured for the solutions.
# [2] = Hygroscopicity: DVS isotherm at 25° C.; conditions: for hygroscopicity: DVS at 25° C.; for water uptake up to 80% RH: 25° C./80% RH
# Procedure: DVS isotherm plot was collected at 25° C. to investigate the solid form stability as a function of humidity. […] For the possible hydrate/solvate di-HCl salt Type A, solids were equilibrated at ambient humidity (~30% RH) before testing. DVS was measured via a SMS (Surface Measurement Systems) DVS Intrinsic. The relative humidity at 25° C. were calibrated against deliquescence point of LiCl, Mg(NO3)2 and KCl. DVS isotherm plot was collected at 25° C. to investigate the solid form stability as a function of humidity for anhydrate Type A (807919-05-A). Solids were pre-dried at 0% RH to remove the unbounded solvent or water before started. […] DVS was measured via a SMS (Surface Measurement Systems) DVS Intrinsic. The relative humidity at 25° C. were calibrated against deliquescence point of LiCl, Mg(NO3)2 and KCl.
# [3] = Polymorph screening of freebase Type A (solid form by XRPD)
compound,measurement,setting,value
"CCOCc1nc2c(N)nc3ccccc3c2n1CC(C)(C)O [Freebase Type A, 1-[4-amino-2-(ethoxymethyl)imidazo-[4,5-c]-quinolin-1-yl]-2-methylpropan-2-ol]",solubility kinetic,[1]; FaSSIF,~2900 µg/mL
same,FC: Solid form change,"[1]; FaSSIF, 1 hr",No
same,S: Solubility,"[1]; FaSSIF, 1 hr",2.7 mg/mL
same,pH: Final pH of supernatant,"[1]; FaSSIF, 1 hr",7.0
same,FC: Solid form change,"[1]; FaSSIF, 2 hrs",No
same,S: Solubility,"[1]; FaSSIF, 2 hrs",2.8 mg/mL
same,pH: Final pH of supernatant,"[1]; FaSSIF, 2 hrs",7.0
same,FC: Solid form change,"[1]; FaSSIF, 4 hrs",No
same,S: Solubility,"[1]; FaSSIF, 4 hrs",2.8 mg/mL
same,pH: Final pH of supernatant,"[1]; FaSSIF, 4 hrs",7.1
same,FC: Solid form change,"[1]; FaSSIF, 24 hrs",No
same,S: Solubility,"[1]; FaSSIF, 24 hrs",2.9 mg/mL
same,pH: Final pH of supernatant,"[1]; FaSSIF, 24 hrs",7.0
same,pH: Final pH of supernatant,"[1]; FeSSIF, 24 hrs",5.4
same,solubility kinetic,"[1]; SGF and FeSSIF, simulated gastric fluid, SGF/FeSSIF",> 4900 µg/mL
same,S: Solubility,"[1]; SGF, 1 hr",2.7 mg/mL
same,pH: Final pH of supernatant,"[1]; SGF, 1 hr",3.6
same,S: Solubility,"[1]; SGF, 2 hrs",3.5 mg/mL
same,pH: Final pH of supernatant,"[1]; SGF, 2 hrs",5.0
same,S: Solubility,"[1]; SGF, 4 hrs",5.0 mg/mL
same,pH: Final pH of supernatant,"[1]; SGF, 4 hrs",5.0
same,S: Solubility,"[1]; SGF, 24 hrs",5.0 mg/mL
same,pH: Final pH of supernatant,"[1]; SGF, 24 hrs",4.9
same,FC: Solid form change,"[1]; Water, 1 hr",No
same,S: Solubility,"[1]; Water, 1 hr",0.5 mg/mL
same,pH: Final pH of supernatant,"[1]; Water, 1 hr",8.4
same,FC: Solid form change,"[1]; Water, 2 hrs",No
same,S: Solubility,"[1]; Water, 2 hrs",0.5 mg/mL
same,pH: Final pH of supernatant,"[1]; Water, 2 hrs",8.6
same,FC: Solid form change,"[1]; Water, 4 hrs",No
same,S: Solubility,"[1]; Water, 4 hrs",0.5 mg/mL
same,pH: Final pH of supernatant,"[1]; Water, 4 hrs",8.1
same,FC: Solid form change,"[1]; Water, 24 hrs",No
same,S: Solubility,"[1]; Water, 24 hrs",0.5 mg/mL
same,pH: Final pH of supernatant,"[1]; Water, 24 hrs",8.1
same,Kinetic Solubility at RT,[1]; water,~0.5 (water) mg/mL
same,hygroscopicity,[2]; listed as Type A,non-hygroscopic
same,hygroscopicity,[2]; listed as freebase Type A,non-hygroscopic
same,Water Uptake at 25° C./80% RH,"[2]; DVS, 25° C., up to 80% RH",0.1%
same,water uptake up to 80% RH,"[2]; DVS, listed as Type A",0.1%
same,water uptake up to 80% RH,"[2]; DVS, listed as freebase Type A",0.1%
same,Form Change Post DVS Test,[2]; XRPD after DVS,No
same,Form Change Post DVS Test,"[2]; XRPD pre and post DVS, listed as Type A",no form change
same,Form Change Post DVS Test,"[2]; XRPD pre and post DVS, listed as freebase Type A",no form change
same,Solid Form,"[3]; anti-solvent addition: solvent 1,4-dioxane, anti-solvent Toluene, solids after stirring at 5° C. for 2 days",Type A
same,Solid Form,"[3]; anti-solvent addition: solvent 2-MeTHF, anti-solvent n-heptane",Type A + B
same,Solid Form,"[3]; anti-solvent addition: solvent Acetone, anti-solvent H2O, no solid at 5° C., then evaporation",Type A
same,Solid Form,"[3]; anti-solvent addition: solvent Acetone, anti-solvent MTBE, no solid at 5° C., then evaporation",Type B
same,Solid Form,"[3]; anti-solvent addition: solvent CHCl3, anti-solvent MTBE",Type A
same,Solid Form,"[3]; anti-solvent addition: solvent CHCl3, anti-solvent n-heptane",Type A + B
same,Solid Form,"[3]; anti-solvent addition: solvent DCM, anti-solvent Anisole",Clear
same,Solid Form,"[3]; anti-solvent addition: solvent DCM, anti-solvent Toluene",Type A
same,Solid Form,"[3]; anti-solvent addition: solvent DMAc, anti-solvent H2O",Type A
same,Solid Form,"[3]; anti-solvent addition: solvent DMSO, anti-solvent H2O",Type A
same,Solid Form,"[3]; anti-solvent addition: solvent EtOH, anti-solvent Anisole, no solid at 5° C., then evaporation",Type G
same,Solid Form,"[3]; anti-solvent addition: solvent EtOH, anti-solvent n-heptane",Type A
same,Solid Form,"[3]; anti-solvent addition: solvent Ethyl lactate, anti-solvent n-heptane",Type A + Sample H
same,Solid Form,"[3]; anti-solvent addition: solvent IBA, anti-solvent Toluene, no solid at 5° C., then evaporation",Type B
same,Solid Form,"[3]; anti-solvent addition: solvent IPA, anti-solvent H2O, no solid at 5° C., then evaporation",Clear
same,Solid Form,"[3]; anti-solvent addition: solvent MeOH, anti-solvent H2O",Type A
same,Solid Form,"[3]; anti-solvent addition: solvent MeOH, anti-solvent MTBE, solids after stirring at 5° C. for 2 days",Type A
same,Solid Form,"[3]; anti-solvent addition: solvent NMP, anti-solvent H2O",Type A
same,Solid Form,"[3]; anti-solvent addition: solvent THF, anti-solvent H2O, no solid at 5° C., then evaporation",Type A
same,Solid Form,"[3]; anti-solvent addition: solvent THF, anti-solvent n-heptane",Type A + B
same,Solid Form,"[3]; liquid vapor diffusion, RT 6 days: solvent 2-MeTHF, anti-solvent Toluene",Type A
same,Solid Form,"[3]; liquid vapor diffusion, RT 6 days: solvent Acetone, anti-solvent n-heptane",Type A
same,Solid Form,"[3]; liquid vapor diffusion, RT 6 days: solvent CHCl3, anti-solvent Toluene",Type A + B
same,Solid Form,"[3]; liquid vapor diffusion, RT 6 days: solvent DCM, anti-solvent n-heptane",Type A
same,Solid Form,"[3]; liquid vapor diffusion, RT 6 days: solvent DMAc, anti-solvent MTBE",Type D
same,Solid Form,"[3]; liquid vapor diffusion, RT 6 days: solvent EtOH, anti-solvent H2O",Type A
same,Solid Form,"[3]; liquid vapor diffusion, RT 6 days: solvent Ethyl lactate, anti-solvent MTBE",Clear
same,Solid Form,"[3]; liquid vapor diffusion, RT 6 days: solvent IBA, anti-solvent n-heptane",Clear
same,Solid Form,"[3]; liquid vapor diffusion, RT 6 days: solvent NMP, anti-solvent MTBE",Type E
same,Solid Form,"[3]; liquid vapor diffusion, RT 6 days: solvent THF, anti-solvent H2O",Type B
same,Solid Form,"[3]; polymer induced crystallization: Acetone, Polymer mixture A",Type A
same,Solid Form,"[3]; polymer induced crystallization: Acetone, Polymer mixture B",Type A
same,Solid Form,"[3]; polymer induced crystallization: MeOH, Polymer mixture A",Type A
same,Solid Form,"[3]; polymer induced crystallization: MeOH, Polymer mixture B",Type B
same,Solid Form,"[3]; polymer induced crystallization: THF, Polymer mixture A",Type A
same,Solid Form,"[3]; polymer induced crystallization: THF, Polymer mixture B",Type A
same,Crystal Form,"[3]; screening summary: Anti-solvent Addition, 20 experiments","Type A, B, G, sample H"
same,Crystal Form,"[3]; screening summary: Polymer-induced Crystallization, 6 experiments","Type A, B"
same,Crystal Form,"[3]; screening summary: Slow Cooling, 10 experiments","Type A, B, F, G"
same,Crystal Form,"[3]; screening summary: Slow Evaporation, 10 experiments","Type A, B"
same,Crystal Form,"[3]; screening summary: Slurry at RT/50° C., 31 experiments","Type A, C"
same,Crystal Form,"[3]; screening summary: Solid Vapor Diffusion, 13 experiments","Type A, C"
same,Crystal Form,"[3]; screening summary: Solution Vapor Diffusion, 10 experiments","Type A, B, D, E"
same,Crystal Form,"[3]; screening summary: Total, 100 experiments","Type A~G, sample H"
same,Solid Form,"[3]; slow cooling, then −20° C.: ACN",Type A
same,Solid Form,"[3]; slow cooling, then −20° C.: Acetone/H2O (1:3)",Type A
same,Solid Form,"[3]; slow cooling, then −20° C.: Anisole, limited solid, then evaporation at RT",Type G
same,Solid Form,"[3]; slow cooling, then −20° C.: CHCl3/MTBE (1:3)",Type B
same,Solid Form,"[3]; slow cooling, then −20° C.: EtOAc",Type A
same,Solid Form,"[3]; slow cooling, then −20° C.: EtOH/n-heptane (1:3)",Type A
same,Solid Form,"[3]; slow cooling, then −20° C.: IPAc",Type A
same,Solid Form,"[3]; slow cooling, then −20° C.: MEK",Type F
same,Solid Form,"[3]; slow cooling, then −20° C.: MIBK",Type A + B
same,Solid Form,"[3]; slow cooling, then −20° C.: THF/toluene (1:3)",Type A + B
same,Solid Form,[3]; slow evaporation at RT: 2-MeTHF/n-heptane (1:1),Type B
same,Solid Form,[3]; slow evaporation at RT: ACN,Type A + B
same,Solid Form,[3]; slow evaporation at RT: Acetone,Type A
same,Solid Form,[3]; slow evaporation at RT: CHCl3/n-heptane (1:1),Type A + B
same,Solid Form,[3]; slow evaporation at RT: DCM,Type A
same,Solid Form,[3]; slow evaporation at RT: EtOAc,Type B
same,Solid Form,[3]; slow evaporation at RT: EtOH/H2O (1:1),Type A
same,Solid Form,[3]; slow evaporation at RT: IPA,Type A
same,Solid Form,[3]; slow evaporation at RT: MeOH,Type A
same,Solid Form,[3]; slow evaporation at RT: THF,Type A
same,Solid Form,"[3]; slurry at 50° C., about 3 days: 1,4-dioxane",Type C
same,Solid Form,"[3]; slurry at 50° C., about 3 days: 2-MeTHF",Type A
same,Solid Form,"[3]; slurry at 50° C., about 3 days: ACN",Type A
same,Solid Form,"[3]; slurry at 50° C., about 3 days: Anisole",Type A
same,Solid Form,"[3]; slurry at 50° C., about 3 days: CHCl3/toluene (1:5)",Type A
same,Solid Form,"[3]; slurry at 50° C., about 3 days: EtOAc",Type A
same,Solid Form,"[3]; slurry at 50° C., about 3 days: H2O",Type A
same,Solid Form,"[3]; slurry at 50° C., about 3 days: IBA",Type A
same,Solid Form,"[3]; slurry at 50° C., about 3 days: IPA",Type A
same,Solid Form,"[3]; slurry at 50° C., about 3 days: IPAc",Type A
same,Solid Form,"[3]; slurry at 50° C., about 3 days: MEK",Type A
same,Solid Form,"[3]; slurry at 50° C., about 3 days: MIBK",Type A
same,Solid Form,"[3]; slurry at 50° C., about 3 days: MeOH/H2O (1:5)",Type A
same,Solid Form,"[3]; slurry at 50° C., about 3 days: THF/n-heptane (1:5)",Type A
same,Solid Form,"[3]; slurry at RT, 3 days: 1,4-dioxane",Type A
same,Solid Form,"[3]; slurry at RT, 3 days: 2-MeTHF",Type A
same,Solid Form,"[3]; slurry at RT, 3 days: ACN",Type A
same,Solid Form,"[3]; slurry at RT, 3 days: Anisole",Type A
same,Solid Form,"[3]; slurry at RT, 3 days: DCM/toluene (1:3)",Type A
same,Solid Form,"[3]; slurry at RT, 3 days: EtOAc",Type A
same,Solid Form,"[3]; slurry at RT, 3 days: IBA",Type A
same,Solid Form,"[3]; slurry at RT, 3 days: IPA",Type A
same,Solid Form,"[3]; slurry at RT, 3 days: IPAc",Type A
same,Solid Form,"[3]; slurry at RT, 3 days: MEK",Type A
same,Solid Form,"[3]; slurry at RT, 3 days: MIBK",Type A
same,Solid Form,"[3]; slurry at RT, 3 days: MeOH/H2O (1:3)",Type A
same,Solid Form,"[3]; slurry at RT, 3 days: THF/n-heptane (1:3)",Type A
same,Solid Form,"[3]; slurry at RT, 3 days: acetone/H2O (aw = 0.2)",Type A
same,Solid Form,"[3]; slurry at RT, 3 days: acetone/H2O (aw = 0.4)",Type A
same,Solid Form,"[3]; slurry at RT, 3 days: acetone/H2O (aw = 0.6)",Type A
same,Solid Form,"[3]; slurry at RT, 3 days: acetone/H2O (aw = 0.8)",Type A
same,Solid Form,"[3]; solid vapor diffusion, RT 7 days: 1,4-dioxane",Type C
same,Solid Form,"[3]; solid vapor diffusion, RT 7 days: ACN",Type A
same,Solid Form,"[3]; solid vapor diffusion, RT 7 days: Acetone",Type A
same,Solid Form,"[3]; solid vapor diffusion, RT 7 days: CHCl3",Type A
same,Solid Form,"[3]; solid vapor diffusion, RT 7 days: DCM",Type A
same,Solid Form,"[3]; solid vapor diffusion, RT 7 days: DMF",Type A
same,Solid Form,"[3]; solid vapor diffusion, RT 7 days: DMSO",Type A
same,Solid Form,"[3]; solid vapor diffusion, RT 7 days: EtOAc",Type A
same,Solid Form,"[3]; solid vapor diffusion, RT 7 days: EtOH",Type A
same,Solid Form,"[3]; solid vapor diffusion, RT 7 days: H2O",Type A
same,Solid Form,"[3]; solid vapor diffusion, RT 7 days: IPA",Type A
same,Solid Form,"[3]; solid vapor diffusion, RT 7 days: MeOH",Type A
same,Solid Form,"[3]; solid vapor diffusion, RT 7 days: THF",Type A

# From patent US20260248780A1, “PHARMACEUTICAL COMPOSITIONS” (Birdie Biopharmaceuticals, Inc., priority 2017, published 2026)
